{"source": "patent US11324768B2", "about": "“Applications of triacetyl-3-hydroxyl phenyl adenosine in treating vascular inflammations or improving vascular endothelium functions” (priority 2016, dated 2022)", "format_in_all_cases": "in vivo", "key": {"C57BL/6J mice": {"tested_on": "C57BL/6J mice", "experiment": "TNF-α-induced acute vascular inflammation in mice (leukocyte movement rate and leukocyte-endothelial cell adhesion in mesenteric venules)", "settings": "7 days, 4 h after TNF-α", "experimental": "60 C57BL/6J mice were randomly divided into 6 groups according to body weight: normal control group, model control group, IMM-H007 group, positive control AMPK agonist group metformin, A769662 group, and atorvastatin group, respectively, and were intragastrically administered with physiological saline, IMM-H007 (100 mg/kg), metformin (260 mg/kg), and atorvastatin (lipitor, 10 mg/kg), respectively, and injected intraperitoneally with A769662 (30 mg/kg, which is difficult to absorb by oral administration) for 7 consecutive days. On the 8th day, except that the blank control group was intraperitoneally injected with normal saline, other groups were all intraperitoneally injected with TNF-α (0.3 μg/dose) to induce acute inflammations in the blood vessels. Four hours after the injection of TNF-α, the optic nerve vascular plexus was intravenously injected with 0.05% Rhodamine-6G, and leukocytes were fluorescently labeled with 100 μl. The mice were anesthetized with pentobarbital sodium. The right side of the mice was fixed on a observation table. A small mouth was cut along the abdominal cavity. The mesenteric vascular bed was gently pulled out. The small intestine of the mice was fixed in a observation window. The microscope is turned on to find a clear third-order mesenteric vein under a low power microscope, and then adjusted to 20-fold magnification for observation, after adjusting the brightness and focal length to the optimum, the white light was turned off, the fluorescence was turned on, and a 1 min leukocyte movement video was collected from each vessel segment using the ToumView software of the Dynamic Visual Microvascular Research System (Gene&I-SMC1). The leukocyte movement rate and leukocyte-endothelial cell adhesion number reflect intravascular inflammations and are early signs of endothelial dysfunction.\nThe leukocyte movement rate was analyzed with image pro 6.0. At least three observation points were selected for each observation field, and at least 9 observation sites were finally counted for each mouse. The mean value was calculated to obtain the average leukocyte movement rate."}, "ApoE−/− mice [1]": {"tested_on": "ApoE−/− mice", "experiment": "Intravascular inflammatory response in high-fat-fed ApoE−/− mice (chronic inflammation model)", "settings": "8 weeks, high-fat diet", "experimental": "After 1 week of adaptive feeding, the animals were randomly divided into 4 groups according to body weight: model control group, A769662 (30 mg/kg, ip), metformin (260 mg/kg), IMM-H007 (100 mg/kg) administration groups, 7 in each group, and were given a high-fat diet (78.6% basal diet, 10% lard, 1.00%/cholesterol, 10% egg yolk powder, and 0.4% bile salt), and simultaneously administered intragastrically at a dose of 0.1 ml/10 g body weight, and were continuously administered and fed for 8 weeks. The mice were anesthetized with pentobarbital sodium (60 mg/kg body weight). The right side of the mice was fixed on a observation table. A small mouth was cut along the abdominal cavity. The mesenteric vascular bed was gently pulled out. The small intestine of the mice was fixed in an observation window, the microscope is turned on to find a clear third-order mesenteric vein under a low power microscope, and then adjusted to 20-fold magnification for observation, after adjusting the brightness and focal length to the optimum, the white light was turned off, the fluorescence was turned on, and the leukocyte movement in the blood vessel could be observed. A 1 min leukocyte movement video was collected from each vessel segment using the ToumView software of the Dynamic Visual Microvascular Research System (Gene&I-SMC1). Leukocyte movement rate and number of leukocyte-endothelial cells adhesion were analyzed using image pro 6.0.\n(1) Leukocyte Movement Rate and (2) Number of Leukocyte-Endothelial Cell Adhesion"}, "VCAM-1": {"tested_on": "VCAM-1", "experiment": "Serum inflammatory factor VCAM-1 in ApoE−/− mice (ELISA)"}, "TNF-α": {"tested_on": "TNF-α", "experiment": "Serum inflammatory factor TNF-α in ApoE−/− mice (ELISA)", "parameters": "unit not given here", "experimental": "After 1 week of adaptive feeding, the animals were randomly divided into 7 groups according to body weight: normal control group, model control group A769662 (30 mg/kg) administration group, metformin (260 mg/kg) administration group, IMM-H007 low, medium, and high administration groups (50, 100, 200 mg/kg), 8 in each group, and were given a high-fat diet (78.6% basal diet, 10% lard, 1.0% cholesterol, 10% egg yolk powder, and 0.4% bile salt), […] body weight, and were continuously administered and fed for 8 weeks to establish an atherosclerosis model.\n(2) Effect of IMM-H007 on Serum Inflammatory Factors TNF-α and VCAM-1 in ApoE−/− Mice\nOperated according to kit instructions"}, "ApoE−/− mice [2]": {"tested_on": "ApoE−/− mice", "experiment": "Plaque area in ApoE−/− mice (oil red O staining of aorta and aortic root)", "settings": "for plaque area, Overall length of aorta: in % (unit assumed)", "experimental": "After 1 week of adaptive feeding, the animals were randomly divided into 7 groups according to body weight: normal control group, model control group A769662 (30 mg/kg) administration group, metformin (260 mg/kg) administration group, IMM-H007 low, medium, and high administration groups (50, 100, 200 mg/kg), 8 in each group, and were given a high-fat diet (78.6% basal diet, 10% lard, 1.0% cholesterol, 10% egg yolk powder, and 0.4% bile salt), and simultaneously administered intragastrically at a dose of 0.1 ml/10 g body weight, […] model.\nThe aortic root was stained with oil red O and the overall length of the aorta was stained with oil red O. The pathological images were analyzed by Photoshop, Image 1, and Image-Pro Plus softwares. The pathological grading data were statistically analyzed using Chi-square test."}}}
{"smiles": "N#Cc1c(O)c2c(-c3ccc(-c4ccccc4O)cc3)csc2[nH]c1=O", "note": "[A769662]", "values": [{"measurement": "Leukocyte movement rate", "setting": "C57BL/6J mice; 30 mg/kg, ip", "result": "24.9 ± 3.8", "unit": "µm/s"}, {"measurement": "Number of leukocyte adhesion", "setting": "C57BL/6J mice; 30 mg/kg, ip", "result": "3.5 ± 1.8", "unit": "number/200 micron"}, {"measurement": "Leukocyte movement rate", "setting": "ApoE−/− mice [1]; 30 mg/kg, ip", "result": "28.7 ± 7", "unit": "µm/s"}, {"measurement": "Number of leukocyte adhesion", "setting": "ApoE−/− mice [1]; 30 mg/kg, ip", "result": "13.7 ± 4.9", "unit": "number/200 micron"}, {"measurement": "serum VCAM-1", "setting": "VCAM-1; 30 mg/kg, ip", "result": "233.1 ± 18.3"}, {"measurement": "serum TNF-α", "setting": "TNF-α; 30 mg/kg, ip", "result": "247.3 ± 49.7"}, {"measurement": "plaque area, Frozen section of root of aorta %", "setting": "ApoE−/− mice [2]; 30 mg/kg, ip", "result": "3.02 ± 0.89", "unit": "%"}, {"measurement": "plaque area, Overall length of aorta", "setting": "ApoE−/− mice [2]; 30 mg/kg, ip", "result": "2.61 ± 1.80"}]}
{"smiles": "CC(C)c1c(C(=O)Nc2ccccc2)c(-c2ccccc2)c(-c2ccc(F)cc2)n1CC[C@@H](O)C[C@@H](O)CC(=O)O", "note": "[Atorvastatin, atorvastatin]", "values": [{"measurement": "Leukocyte movement rate", "setting": "C57BL/6J mice; 10 mg/kg intragastric", "result": 20.6, "unit": "µm/s"}, {"measurement": "Number of leukocyte adhesion", "setting": "C57BL/6J mice; 10 mg/kg intragastric", "result": 5.3, "unit": "number/200 µm"}]}
{"smiles": "CN(C)C(=N)N=C(N)N", "note": "[Metformin, metformin]", "values": [{"measurement": "Leukocyte movement rate", "setting": "C57BL/6J mice; 260 mg/kg intragastric", "result": 21.5, "unit": "µm/s"}, {"measurement": "Number of leukocyte adhesion", "setting": "C57BL/6J mice; 260 mg/kg intragastric", "result": "5.1 ± 2.2", "unit": "number/200 micron"}, {"measurement": "Leukocyte movement rate", "setting": "ApoE−/− mice [1]; 260 mg/kg", "result": 21.4, "unit": "µm/s"}, {"measurement": "Number of leukocyte adhesion", "setting": "ApoE−/− mice [1]; 260 mg/kg", "result": "16.3 ± 6.8", "unit": "number/200 micron"}, {"measurement": "serum VCAM-1", "setting": "VCAM-1; 260 mg/kg", "result": "234.9 ± 16.7"}, {"measurement": "serum TNF-α", "setting": "TNF-α; 260 mg/kg", "result": "229.1 ± 35.2"}, {"measurement": "plaque area, Frozen section of root of aorta %", "setting": "ApoE−/− mice [2]; 260 mg/kg", "result": "3.73 ± 1.15", "unit": "%"}, {"measurement": "plaque area, Overall length of aorta", "setting": "ApoE−/− mice [2]; 260 mg/kg", "result": "3.13 ± 1.76"}]}
